Entries after “also recorded” stand apart in the source; their conditions may differ.
What was measured:
[1] = system: Oprm1−/− mice; experiment: Direct social interaction test
[2] = system: Oprm1−/− mice; experiment: Y-maze exploration
[3] = system: Shank3B−/− mice; experiment: Motor stereotypies scoring; format: in vivo; conditions: bromide 250 mg/kg i.p. daily
Experimental: (§1) Sodium bromide (anhydrous, Sigma-Aldrich, Saint-Quentin, France) dissolved in saline solution (NaCl, 0.9%) at the dose of 250 or 500 mg/kg, or vehicle (NaCl, 0.9%), was administered intraperitoneally once a day for 19 days in a volume of 20 ml/kg. On testing days, bromide was administered 30 min before behavioural assays. Bumetanide (Tocris, provided by Bio-Techne, Lille, France) dissolved in NaCl 0.9% at the dose of 0.5 mg/kg (Deidda et al, 2015) or vehicle was administered intraperitoneally once a day for 19 days in a volume of 20 ml/kg.
(§2) Behavioural assays started after a week of daily bromide (or bumetanide) treatment.

[4] = system: Fmr1−/− mice; experiment: Motor stereotypies scoring; format: in vivo; conditions: bromide 250 mg/kg i.p. daily
Experimental: as §1, §2

[5] = system: Shank3B−/− mice; experiment: Three-chamber social novelty preference test; format: in vivo; conditions: bromide 250 mg/kg i.p. daily
Experimental: as §1, §2
(§3) Three-chamber social novelty preference test.

[6] = system: Fmr1−/− mice; experiment: Three-chamber social novelty preference test; format: in vivo; conditions: bromide 250 mg/kg i.p. daily
Experimental: as §1, §2, §3

[7] = system: Shank3B−/− mice; experiment: Y-maze exploration; format: in vivo; conditions: bromide 250 mg/kg i.p. daily
Experimental: as §1, §2

[8] = system: Fmr1−/− mice; experiment: Y-maze exploration; format: in vivo; conditions: bromide 250 mg/kg i.p. daily
Experimental: as §1, §2

[9] = system: Shank3B−/− mice; experiment: Novelty-suppressed feeding test; format: in vivo; conditions: bromide 250 mg/kg i.p. daily
Experimental: as §1, §2
(§4) Novelty-suppressed feeding. […] Immediately after an eating event, the mouse was transferred back to the home cage (free from cage-mates) and allowed to feed on lab chow for 5 min.

[10] = system: Fmr1−/− mice; experiment: Novelty-suppressed feeding test; format: in vivo; conditions: bromide 250 mg/kg i.p. daily
Experimental: as §1, §2, §4

[11] = system: Fmr1−/− mice; experiment: Marble burying test; format: in vivo; conditions: Fmr1−/− and Fmr1+/+ mice; bromide 250 mg/kg i.p. daily
Experimental: as §1, §2

[12] = literature statement (Romermann et al, 2017); cited from earlier work
[13] = system: Oprm1−/− mice; experiment: Locomotor activity by videotracking; format: in vivo; conditions: Example 2; for locomotor activity after bromide administration: 250 and 500 mg/kg
Experimental: as §1
Locomotor activity. Locomotor activity was assessed in clear cages (21×11×17 cm) placed over a white Plexiglas infrared-lit platform. Light intensity of the room was set at 15 lx. The trajectories of the mice were analyzed and recorded via an automated tracking system equipped with an infrared-sensitive camera (Videotrack; View Point, Lyon, France). To focus on forward activity, only movements which speed was over 6 cm/s were taken into account for the measure of locomotor activity. Behavioral testing started when the animals were placed in the activity boxes for a 30 min-habituation period. They were then injected with either vehicle or sodium bromide (250 or 500 mg/kg) and locomotor activity was monitored for further 90 min.

[14] = system: Shank3B−/− mice; experiment: Direct social interaction test; format: in vivo
Experimental: as §1, §2
(§5) Direct social interaction.

[15] = system: Fmr1−/− mice; experiment: Direct social interaction test; format: in vivo
Experimental: as §1, §2, §5

[16] = system: Oprm1−/− mice; experiment: Novelty-suppressed feeding test; conditions: for latency to feed: Oprm1 wild-type and null mice, bromide 250, 500 mg/kg
[17] = Example 2, Oprm1−/− mice, bromide 250, 500 mg/kg
[18] = Example 2, Oprm1−/− mice, bromide 250, 500 mg/kg i.p. daily
[19] = Example 2, male and female Oprm1−/− mice, bromide 250, 500 mg/kg
[20] = Oprm1−/− mice, bromide 125, 250, 500 mg/kg i.p. daily vs saline
[21] = Oprm1−/− mice, bumetanide 0.5 mg/kg
[22] = social interaction and three-chamber tests, bromide 250 mg/kg

SMILES: [Br-].[Na+] [bromide, Sodium bromide]
- number of nose contacts and following episodes ([1]; Example 2, FIG. 13A, male mutants, both doses): increased
- total amount of time spent in social contact ([1]; Example 2, FIG. 13A, male wild-type and knockout mice): increased
- total time in social contact, number of nose contacts and following episodes ([1]; Example 2, FIG. 13B, female mutant mice only, dose dependent): increased
- number of rearing episodes (activity) ([1]; Example 2, Oprm1 null mice, bromide 250 mg/kg, more in males than females): increased
- social interaction (overall) [1, 17]: able to restore social interaction
- number of following episodes [1, 18]: increasing
- number, time spent in and duration of nose and paw contacts [1, 18]: increasing
- time spent in close contact [1, 18]: increasing
- gender influence on the increase of social interaction parameters ([1]; Example 2, Oprm1−/− mice, effects since 250 mg/kg in males, only at the highest dose in females): more significantly in males than in females
- duration of grooming episodes [1, 19]: reduced
- number of grooming episodes [1, 19]: reduced
- number of grooming episodes occurring immediately after a close contact [1, 19]: reduced
- time spent grooming [1, 19]: reduced
- direct social interaction (overall) [1, 20]: can restore direct social interaction; also recorded: significantly improved social interaction; also recorded: increased direct social interaction
- number of following episodes [1, 20]: dose-dependently increasing; also recorded: increased
- number of grooming episodes [1, 20]: reduced
- number of grooming episodes occurring immediately after a social contact [1, 20]: reduced
- number, time spent in and duration of nose and paw contacts [1, 20]: dose-dependently increasing; also recorded: increased
- total time spent in social contact [1, 20]: dose-dependently increasing; also recorded: increased
- efficiency on social interaction parameters in male compared with female mice ([1]; Oprm1−/− mice, bromide 250 and 500 mg/kg i.p. daily): more efficient in increasing social interaction parameters
- increases in social contact time, nose contacts, following episodes and paw contacts, bromide compared with bumetanide [1, 21]: bigger increases
- suppressive effects on grooming episodes incl. those after a social contact, bromide compared with bumetanide [1, 21]: comparable
- beneficial effects on sociability, bromide compared with bumetanide ([1]; Oprm1−/− mice, social interaction and three-chamber tests, bumetanide at 0.5 mg/kg, 0.5 mg/kg): more significant; also recorded: superior efficacy
- ratio of same arm returns (cognitive stereotypies, perseveration) [2, 17]: normalized; also recorded: relieved; also recorded: abolished
- spontaneous alternation [2, 17]: restored
- number of arm entries (index of general locomotor activity) ([2]; Example 2, both genotypes and genders, bromide 250 mg/kg): increased
- number of alternate arm returns ([2]; Example 2, more in mutants than wild-type, more in females than males): increased; also recorded: tendency to increase
- rate of alternate arm returns ([2]; Oprm1−/− and wild-type, bromide 125, 250, 500 mg/kg i.p. daily): increasing the rate
- perseverative same arm returns (cognitive stereotypies) ([2]; Oprm1−/− mice, bromide 125, 250, 500 mg/kg i.p. daily): efficiently reduced; also recorded: demonstrated efficacy in reducing; also recorded: dose-dependently decreased; also recorded: significant decrease
- number of rearing episodes ([3]; Shank3B−/− and wild-type): no effect
- motor stereotypies (overall) ([3]; Shank3B−/− mice): efficiently reduced; also recorded: relieves
- number of circling episodes ([3]; Shank3B−/− mice): normalized; also recorded: reduced
- number of grooming episodes ([3]; Shank3B−/− mice): normalized
- number of shakes ([3]; Shank3B−/− mice): normalized; also recorded: reduced
- number of rearing, grooming or burying episodes ([4]; Fmr1 knockout and wild-type): no effect
- motor stereotypies (overall) ([4]; Fmr1−/− mice): efficiently reduced; also recorded: relieves
- number of circling episodes ([4]; Fmr1−/− mice): normalized; also recorded: reduced
- number of shakes ([4]; Fmr1−/− mice): normalized; also recorded: reduced
- duration of burying events ([4]; all animals (Fmr1 line)): reduced
- time spent burying ([4]; all animals (Fmr1 line)): reduced
- number of close contacts with the mouse versus the toy ([5]; Shank3B line): no significant effect
- preferential time spent in the compartment with the mouse versus the toy ([5]; Shank3B line): no significant effect
- duration of close contacts with the mouse versus the toy ([5]; Shank3B−/− mice): increased; also recorded: restored
- preference in time spent in close contact with the mouse versus the toy ([5]; Shank3B−/− mice): increased; also recorded: restored
- number of close contacts with the mouse ([6]; Fmr1 knockout or wild-type): no significant effect
- preferential time spent in the compartment with the mouse ([6]; Fmr1 knockout or wild-type): no significant effect
- duration of close contacts with the mouse versus the toy ([6]; Fmr1−/− mice): increased; also recorded: restored
- preference in time spent in close contact with the mouse versus the toy ([6]; Fmr1−/− mice): increased; also recorded: restored
- rate of alternate arm returns ([7]; Shank3B line): not modified
- perseverative same arm returns (cognitive stereotypies) ([7]; Shank3B−/− mice): normalized; also recorded: relieves; also recorded: suppressed
- rate of spontaneous alternation ([7]; Shank3B−/− mice): rescued
- perseverative same arm returns (cognitive stereotypies) [8]: efficiently reduced; also recorded: relieves; also recorded: suppressed
- food intake back in the home cage ([9]; Shank3B mutants): did not rescued
- exacerbated anxiety (overall) ([9]; Shank3B−/− mice): can reduce
- feeding latency ([9]; Shank3B−/− mice): normalized
- food intake back in the home cage ([10]; Fmr1 line): did not modify
- exacerbated anxiety (overall) ([10]; Fmr1−/− mice): can reduce
- feeding latency ([10]; Fmr1−/− mice): reduced the feeding latency to wild-type level; also recorded: decreased
- number of marbles buried [11]: reduced
- ability to cross the blood brain barrier [12]: easily cross this barrier
- locomotor activity during the habituation run ([13]; chronically treated animals, males since 250 mg/kg, females only at 500 mg/kg): higher
- locomotor activity after bromide administration ([13]; controls (wild-type)): not modified in controls at 250 mg/kg and was increased at 500 mg/kg; also recorded: at the dose of 500 mg/kg only
- locomotor activity (overall) ([13]; mice, bromide 250 mg/kg, males more sensitive): increases
- locomotor activity after bromide administration ([13]; mutant (KO) animals): increased in mutant animals at the dose of 250 mg/kg, but not at 500 mg/kg; also recorded: increased activity
- number of following episodes ([14]; bromide 250 mg/kg i.p. daily): restored to wild-type levels; also recorded: reduced
- number of grooming episodes ([14]; bromide 250 mg/kg i.p. daily): reduced
- number of grooming episodes occurring after a social contact ([14]; bromide 250 mg/kg i.p. daily): reduced
- number of, time spent in and duration of paw contacts ([14]; bromide 250 mg/kg i.p. daily): restored to wild-type levels; also recorded: reduced
- time spent in nose contact, number and duration of nose contacts ([14]; bromide 250 mg/kg i.p. daily): restored to wild-type levels; also recorded: reduced
- sociability parameters (overall) [14, 22]: efficiently restores
- number of following episodes ([15]; bromide 250 mg/kg i.p. daily): normalized
- number of grooming episodes ([15]; bromide 250 mg/kg i.p. daily): reduced
- number of grooming episodes occurring after a social contact ([15]; bromide 250 mg/kg i.p. daily): reduced
- number of, time spent in and duration of paw contacts ([15]; bromide 250 mg/kg i.p. daily): normalized
- time spent in nose contact and duration of nose contacts ([15]; bromide 250 mg/kg i.p. daily): normalized
- time spent in social contact ([15]; bromide 250 mg/kg i.p. daily): normalized
- sociability parameters (overall) [15, 22]: efficiently restores
- food intake in home cage ([16]; Example 2, Oprm1 mutants): increased food intake in mutants
- latency to feed ([16]; Example 2): drastically reduced
- latency to feed ([16]; Example 2, listed as Bromide): decreased in wild-type, and normalized in mu opioid receptor null mice
- gender influence on latency to feed ([16]; Example 2, bromide 250 mg/kg): more effective in males than in females
- dose at which the maximal effect on latency to feed was reached ([16]; Example 2, female Oprm1 null mice): 500 mg/kg
- food intake in home cage ([16]; Example 2, female wild-type animals, bromide 250 mg): ate more than saline-treated animals
- dose at which the maximal effect on latency to feed was reached ([16]; Example 2, male Oprm1 null mice): 250 mg/kg
- feeding latency ([16]; Oprm1−/− mice, bromide, all three doses (125, 250, 500 mg/kg)): efficiently reduced the feeding latency to wild-type level; also recorded: normalized
- behavioural signs of anxiety (overall) ([16]; Oprm1−/− mice, marble burying and novelty-suppressed feeding, bromide 125, 250, 500 mg/kg): efficiently reduced; also recorded: relieved
- food intake back in the home cage ([16]; wild-type and mutant mice, bromide 125, 250, 500 mg/kg i.p. daily): increased

Reference: US12036237B2, “Bromide source for use in treating autism spectral disorder” (INSERM (INSTITUT NATIONAL DE LA SANTE ET DE LA RECHERCHE …, priority 2016, dated 2024)
